# Results reported in patent US9597407B2, “Targeted antimicrobial moieties” (C3 Jian, Inc., priority 2009, dated 2017).
# Entries after “also recorded” stand apart in the source; their conditions may differ.
# B1: PF-749 (peptide)
# chain 1: GVNKWWEEHNKAKLWKNVKGKFLEGEGEEEDDE
# chain 2: B1 chain 1
# modifications: Peptide with targeting and/or antimicrobial activity
# B2: PF-745 (peptide)
# chain 1: ANSQNSLFSNRSSFKSIFDKKSNITTNATTPNSNIIIN
# chain 2: B2 chain 1
# modifications: Peptide with targeting and/or antimicrobial activity
# What was measured:
# [1] = test system: microorganisms; test: Morphology, biofilm and growth disruption by peptides (Table 5); assay type: cell-based; design: key: A: Peptide aggregates; B: Less hyphal formation; Clumps; Diffuse clumps and small polyps; F: Diffuse growth; H: Thin; I: Growth inhibition; Microcolony formation; Rippled; Small polyps; Thick; W: Halo formation on top, microlonies on bottom
# Description: In certain embodiments peptides that induce alterations in phenotype or other biological activities can also be used as antimicrobial effector moieties.
# [2] = test system: bacteria; test: Binding of targeting peptides to microorganisms (Table 3); settings: preferably 1x PBS; for Target(s) (microorganisms bound by the targeting peptide) / Target(s) (microorganism bound by the targeting peptide): peptide binding in aqueous buffers that varied depending on peptide solubility
# [3] = test system: microorganisms; test: Peptide activities: binding, antimicrobial, growth or phenotype altering (Table 8)
# Description: In certain embodiments, peptides described herein can have multiple activities. Thus for example, a peptide can have both binding/targeting activity and antimicrobial activity. Such peptides can be used, e.g., in a chimeric construct, for any or all of these properties. Thus, for example, a peptide designated “B” in Table 8 can be used as a targeting peptide. If it is also designated G or M it can also be used for antimicrobial activity.
# [4] = microorganism bound by the targeting peptide, binding in aqueous buffers chosen by peptide solubility
# [5] = microorganism the targeting peptide binds, binding in aqueous buffers that varied with peptide solubility
molecule,measurement,setting,value
PF-390 (VVAYVITQVGAIRF; Peptide with targeting and/or antimicrobial activity),"Organism, effect",[1]; C. jejuni,C. jejuni (D)
same,"Organism, effect",[1]; E. coli,E. coli (C)
same,"Organism, effect",[1]; E. faecalis,E. faecalis (D)
same,"Organism, effect",[1]; MRSA,MRSA (D)
same,"Organism, effect",[1]; S. epidermidis,S. epidermidis (D)
same,"Organism, effect",[1]; S. pneumoniae,S. pneumoniae (D)
same,Target(s) (microorganisms bound by the targeting peptide),[2],S. epidermidis and P. aeruginosa and C. albicans and MRSA
same,Activities,[3],G B
PF-626 (chain 1 KYDFDDFEPEEA; chain 2 KYDFDDFEPEEA; Peptide with targeting and/or antimicrobial activity),"Organism, effect (morphology, biofilm and growth disruption)",[1]; S. pneumoniae,S. pneumoniae (H)
same,Target(s) (microorganism bound by the targeting peptide),[2],S. epidermidis and M. luteus and E. coli and C. albicans and MRSA and S. pneumoniae and E. faecalis and C. jeikeium
same,Activities,[3],G B
PF-127 (MLRYLSLFAVGLATGYAWGWIDGLAASLAV; Peptide with targeting and/or antimicrobial activity),"Organism, effect",[1]; C. jeikeium,C. jeikeium (A)
same,"Organism, effect",[1]; M. luteus,M. luteus (A)
same,"Organism, effect",[1]; S. epidermidis,S. epidermidis (M)
same,Target(s),[2]; [4],S. epidermidis and M. luteus and E. coli and P. aeruginosa and C. albicans and MRSA and S. pneumoniae and E. faecalis
same,Activities,[3],G B
PF-569 (KSKISEYTEKEFLEFVEDIYTNNK; Peptide with targeting and/or antimicrobial activity),"Organism, effect (morphology, biofilm and growth disruption)",[1]; B. subtilis,B. subtilis (D)
same,Target(s) (microorganisms bound by the targeting peptide),[2],M. luteus; also recorded: P. mirabilis; also recorded: S. pneumoniae; also recorded: E. faecalis; also recorded: C. jeikeium
same,Activities,[3],G B
PF-617 (chain 1 PMNAAEPE; chain 2 PMNAAEPE; Peptide with targeting and/or antimicrobial activity),"Organism, effect (morphology, biofilm and growth disruption)",[1]; C. albicans,C. albicans (H)
same,"Organism, effect (morphology, biofilm and growth disruption)",[1]; E. faecalis,E. faecalis (H)
same,"Organism, effect (morphology, biofilm and growth disruption)",[1]; S. pneumoniae,S. pneumoniae (I)
same,Target(s) (microorganism bound by the targeting peptide),[2],P. aeruginosa; also recorded: C. albicans
same,Activities,[3],G B
PF-738 (chain 1 KSGATSAASGAKSGASS; chain 2 KSGATSAASGAKSGASS; Peptide with targeting and/or antimicrobial activity),"Organism, effect (morphology, biofilm and growth disruption)",[1]; MRSA,MRSA (M)
same,Target(s) (microorganism bound by the targeting peptide),[2],S. epidermidis; also recorded: C. albicans; also recorded: C. jeikeium
same,Activities,[3],G B
PF-517 (VKPTMTASLISTVC; Peptide with targeting and/or antimicrobial activity),"Organism, effect (morphology, biofilm and growth disruption)",[1]; S. pneumoniae,S. pneumoniae (M)
same,Target(s) (microorganisms bound by the targeting peptide),[2],C. jejuni
same,Activities,[3],G B
PF-559 (SRPGKPGGVSIDVSRDRQDILSNYP; Peptide with targeting and/or antimicrobial activity),"Organism, effect (morphology, biofilm and growth disruption)",[1]; B. subtilis,B. subtilis (C)
same,"Organism, effect (morphology, biofilm and growth disruption)",[1]; C. jejuni,C. jejuni (A)
same,Target(s) (microorganisms bound by the targeting peptide),[2],S. epidermidis; also recorded: M. luteus; also recorded: C. albicans; also recorded: C. jeikeium; also recorded: C. jejuni
same,Activities,[3],G B
PF-572 (WRASKGLPGFKAG; Peptide with targeting and/or antimicrobial activity),"Organism, effect (morphology, biofilm and growth disruption)",[1]; B. subtilis,B. subtilis (D)
same,"Organism, effect (morphology, biofilm and growth disruption)",[1]; S. pneumoniae,S. pneumoniae (R)
same,Target(s) (microorganisms bound by the targeting peptide),[2],S. epidermidis; also recorded: M. luteus; also recorded: E. coli; also recorded: S. pneumoniae; also recorded: C. jeikeium
same,Activities,[3],G B
PF-542 (KKDNPSLNDQDKNAVLNLLALAK; Peptide with targeting and/or antimicrobial activity),"Organism, effect (morphology, biofilm and growth disruption)",[1]; S. pneumoniae,S. pneumoniae (H)
same,Target(s) (microorganisms bound by the targeting peptide),[2],C. jeikeium
same,Activities,[3],G B
PF-037 (MTKKRRYDTTEFGLAHSMTAKITLHQALYK; Peptide with targeting and/or antimicrobial activity),"Organism, effect",[1]; C. jeikeium,C. jeikeium (D)
same,"Organism, effect",[1]; M. luteus,M. luteus (C)
same,"Organism, effect",[1]; MRSA,MRSA (R)
same,"Organism, effect",[1]; S. epidermidis,S. epidermidis (D)
same,Target(s),[2]; [5],S. epidermidis and M. luteus and P. aeruginosa and C. albicans and MRSA and S. pneumoniae and E. faecalis and C. jeikeium
same,Activities,[3],G B
PF-025 (LLIIFRLWLELKWKNKK; Peptide with targeting and/or antimicrobial activity),"Organism, effect",[1]; C. jeikeium,C. jeikeium (A)
same,"Organism, effect",[1]; M. luteus,M. luteus (A)
same,"Organism, effect",[1]; MRSA,MRSA (R)
same,"Organism, effect",[1]; S. epidermidis,S. epidermidis (S)
same,Target(s),[2]; [5],S. epidermidis and M. luteus and P. mirabilis and E. coli and P. aeruginosa and MRSA and E. faecalis and C. jejuni
same,Activities,[3],G B
PF-362 (NIERILKEKVWMIRCVE; Peptide with targeting and/or antimicrobial activity),"Organism, effect",[1]; E. coli,E. coli (C)
same,"Organism, effect",[1]; MRSA,MRSA (C)
same,Target(s),[2]; [4],S. epidermidis; also recorded: E. coli; also recorded: P. aeruginosa; also recorded: C. albicans; also recorded: E. faecalis; also recorded: C. jejuni
same,Activities,[3],G B
PF-447 (IDKSRNKDQFSHIFGLYNICSG; Peptide with targeting and/or antimicrobial activity),"Organism, effect (morphology, biofilm and growth disruption)",[1]; E. faecalis,E. faecalis (C)
same,"Organism, effect (morphology, biofilm and growth disruption)",[1]; MRSA,MRSA (C)
same,"Organism, effect (morphology, biofilm and growth disruption)",[1]; S. epidermidis,S. epidermidis (C)
same,"Organism, effect (morphology, biofilm and growth disruption)",[1]; S. pneumoniae,S. pneumoniae (C)
same,Target(s) (microorganisms bound by the targeting peptide),[2],S. epidermidis; also recorded: M. luteus; also recorded: E. coli; also recorded: S. pneumoniae
same,Activities,[3],G B
PF-064 (DYYGKE; Peptide with targeting and/or antimicrobial activity),"Organism, effect",[1]; MRSA,MRSA (M)
same,"Organism, effect",[1]; S. epidermidis,S. epidermidis (D)
same,Target(s),[2]; [5],E. coli
same,Activities,[3],G B
B1,"Organism, effect (morphology, biofilm and growth disruption)",[1]; S. pneumoniae,S. pneumoniae (H)
same,Target(s) (microorganism bound by the targeting peptide),[2],S. epidermidis; also recorded: M. luteus; also recorded: E. coli; also recorded: P. aeruginosa; also recorded: C. albicans; also recorded: S. pneumoniae; also recorded: C. jeikeium
same,Activities,[3],G B
B2,"Organism, effect (morphology, biofilm and growth disruption)",[1]; M. luteus,M. luteus (C)
same,"Organism, effect (morphology, biofilm and growth disruption)",[1]; MRSA,MRSA (C)
same,"Organism, effect (morphology, biofilm and growth disruption)",[1]; S. mutans,S. mutans (D)
same,"Organism, effect (morphology, biofilm and growth disruption)",[1]; S. pneumoniae,S. pneumoniae (C)
same,Target(s) (microorganism bound by the targeting peptide),[2],S. epidermidis; also recorded: M. luteus; also recorded: C. albicans
same,Activities,[3],G B
